Tests used:
[1] = test system: Thrombin receptor (PAR-1); experiment: Thrombin receptor (PAR-1) expression on platelets of post-stroke patients during treatment, flow cytometry with antibodies; format: in vivo, human; settings: for Thrombin receptor (PAR-1) SPAN 12 (intact receptor) / Thrombin receptor (PAR-1) WEDE 15 (cleaved receptor): platelets of stroke patients, relative number, mean ± SD; for Change of intact (complete) and cleaved Thrombin receptor expression on platelets, in words: stroke patients, course of treatment of 30 days / one month, platelets ex vivo
Protocol: In order to study the inhibition of Thrombin receptor expression, patients surviving a stroke have been treated with conventional antiplatelet therapy (oral ASA) or a combination of Dipyridamole and ASA (Aggrenox) and thrombin receptor expression was measured during the course of treatment of one month. The expression of the complete as well as the cleaved Thrombin receptor was measured by flow cytometry using well established antibody technology on platelets after venipuncture.
Inhibition of Thrombin Receptor Expression in Platelets—by the Dipyridamole
Table 1 represents the mean and standard deviation of the relative numbers of expressed intact as well as cleaved Thrombin receptors on platelets over time after initiation of treatment with either ASA or the combination of Dipyridamole and ASA.

[2] = ESPS-2 clinical study, compared with low-dose aspirin / aspirin alone; cited from earlier work
[3] = Baseline (n = 15), flow cytometry

## CC(=O)Oc1ccccc1C(=O)O [ASA, acetylsalicalic acid]
[1]; 24 hr of treatment (n = 15)
  Thrombin receptor (PAR-1) SPAN 12 (intact receptor): 37 ± 7
  Thrombin receptor (PAR-1) WEDE 15 (cleaved receptor): 21.9 ± 4.6
[1]; 3 days of treatment (n = 15)
  Thrombin receptor (PAR-1) SPAN 12 (intact receptor): 28 ± 9
  Thrombin receptor (PAR-1) WEDE 15 (cleaved receptor): 15.3 ± 3.3
[1]; 7 days of treatment (n = 15)
  Thrombin receptor (PAR-1) SPAN 12 (intact receptor): 24 ± 5
  Thrombin receptor (PAR-1) WEDE 15 (cleaved receptor): 17.1 ± 6.1
[1]; 15 days of treatment (n = 14)
  Thrombin receptor (PAR-1) SPAN 12 (intact receptor): 26 ± 4.*
  Thrombin receptor (PAR-1) WEDE 15 (cleaved receptor): 16.9 ± 7.5
[1]; 30 days of treatment (n = 12)
  Thrombin receptor (PAR-1) SPAN 12 (intact receptor): 22 ± 7
  Thrombin receptor (PAR-1) WEDE 15 (cleaved receptor): 14.2 ± 5.0
[1]; [3]
  Thrombin receptor (PAR-1) SPAN 12 (intact receptor): 34 ± 7
  Thrombin receptor (PAR-1) WEDE 15 (cleaved receptor): 21.0 ± 5.3
[1]
  Change of intact (complete) and cleaved Thrombin receptor expression on platelets, in words: mild reduction

## OCCN(CCO)c1nc(N2CCCCC2)c2nc(N(CCO)CCO)nc(N3CCCCC3)c2n1 [Dipyridamole, 2,6-bis(diethanolamino)-4,8-dipiperidino-pyrimido[5,4-d]pyrimidine]
[1]
  Change of intact (complete) and cleaved Thrombin receptor expression on platelets, in words: significant reduction
[2]
  Reduction of stroke risk, in words: as effective as low-dose aspirin
